Experimental data: the supplement of paper PMC11451515

Key:
Assay in all cases: AUC of viability dose-response curve (% viability x log10 dose units); higher = less sensitive
Settings in all cases: 48 h
SEM cells = tested on: SEM cells
How it was run: (§1)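 Viability of medium-adapted leukemia cells was measured by CellTiter-Glo One luminescence after 48 h at 37°C with library compounds in DMSO. Doses were 11 threefold steps from 47 μM to 0.79 nM, in 1536-well plates at 500 or 1000 cells/well. Signals were normalised per plate to DMSO and cell-free wells and fitted with a four-parameter log-logistic model on log10 dose. Area under the curve was integrated by trapezoidal rule, with curves exceeding full viability scaled and failed quality-control curves removed.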

P12-Ichikawa = tested on: P12-Ichikawa
How it was run: as §1

NOMO1 = tested on: NOMO1
How it was run: as §1

[1] = RPMI 5 mM glucose + 10% dialyzed FBS

| SMILES | AUC of viability dose-response curve (SEM cells; HPLM + 10% dialyzed FBS) | AUC of viability dose-response curve (SEM cells; RPMI 5 mM glucose + 10% FBS) | AUC of viability dose-response curve (SEM cells; [1]) | AUC of viability dose-response curve (P12-Ichikawa; HPLM + 10% dialyzed FBS) | AUC of viability dose-response curve (P12-Ichikawa; RPMI 5 mM glucose + 10% FBS) | AUC of viability dose-response curve (P12-Ichikawa; [1]) | AUC of viability dose-response curve (NOMO1; HPLM + 10% dialyzed FBS) | AUC of viability dose-response curve (NOMO1; RPMI 5 mM glucose + 10% FBS) | AUC of viability dose-response curve (NOMO1; [1]) |
| --- | --- | --- | --- | --- | --- | --- | --- | --- | --- |
| CCOC(=O)Nc1ccc(NCc2ccc(F)cc2)nc1N | 467 | 466 | 461 | 456 | 451 | 464 | 439 | 469 | 469 |
| CCOC1=CC=CC=C1N\2C(=O)C3=C(C=CC=C3)\N=C2C(C)N4CCN(CC4)C(=O)COC5=CC=C(Cl)C=C5 (stereo unspecified) | 323 | 280 | 297 | 303 | 327 | 320 | 304 | 330 | 357 |
| NC/1=N/C(=O)N(/C=N1)[C@@H]2O[C@H](CO)[C@@H](O)[C@H]2O | 406 | 399 | 322 | 422 | 437 | 428 | 430 | 421 | 396 |
| C[C@]12CCC\3=C\4CCC(=O)\C=C4CC[C@H]3[C@@H]1CC[C@@]2(O)CC#N | 437 | 445 | 451 | 473 | 466 | 468 | 436 | 468 | 454 |
| C[C@H]1COC/2=C1/C(=O)C(=O)C3=C4CCCC(C)(C)C4=CC=C23 | 434 | 363 | 400 | 468 | 466 | 473 | 447 | 469 | 448 |
| NC(=O)NO | 326 | 362 | 332 | 401 | 393 | 367 | 359 | 340 | 347 |
| OC1=CC2=C(C(=C1)O)C(=O)\C(=C(/O2)C3=CC(=C(O)C=C3)O)O | 454 | 470 | 454 | 469 | 471 | 469 | 459 | 465 | 469 |
| CC(C)[C@H](N)C(=O)OCCOC[N]1C=NC2=C1\N=C(N)/NC2=O | 467 | 457 | 465 | 475 | 450 | 458 | 457 | 459 | 474 |
| COc1ncc(-c2ccc3c(Nc4cc(Oc5cc(F)cc(F)c5)cc(C(=O)O)c4)c([S+](=O)([O-])NC4CC4)cnc3c2)c(OC)n1 | 387 | 457 | 414 | 433 | 405 | 401 | 442 | 440 | 428 |
| O=[S+]([O-])(c1cccc2cnccc12)N1CCCNCC1 | 452 | 463 | 447 | 456 | 476 | 467 | 457 | 471 | 465 |
| CC(C)C[C@H](NC(=O)[C@@H](O)[C@H](N)Cc1ccccc1)C(=O)O | 453 | 455 | 454 | 463 | 447 | 452 | 451 | 447 | 439 |
| Nc1ncnc2c1c(-c1cccc(OCc3ccccc3)c1)cn2C1CC(CN2CCCC2)C1 (stereo unspecified) | 388 | 414 | 405 | 463 | 466 | 465 | 411 | 441 | 423 |
| C[C@H]1O[C@H](C[C@H](O)[C@@H]1O)O[C@H]2[C@@H](O)C[C@@H](O[C@@H]2C)O[C@H]3[C@@H](O)C[C@@H](O[C@@H]3C)O[C@H]4CC[C@@]5(C)[C@H](CC[C@@H]6[C@@H]5C[C@@H](O)[C@]7(C)[C@H](CC[C@]67O)C/8=C/C(=O)OC8)C4 | 200 | 250 | 239 | 208 | 242 | 227 | 226 | 280 | 253 |
| COc1cc(N2CCC(N(C)C)CC2)ccc1Nc1ncc(Cl)c(Nc2ccccc2P(C)(C)=O)n1 | 288 | 294 | 287 | 338 | 361 | 380 | 333 | 374 | 375 |
| OCCC#Cc1nc(-c2ccc(F)cc2)c(-c2ccncc2)n1CCCc1ccccc1 | 475 | 467 | 456 | 476 | 467 | 468 | 463 | 465 | 472 |
| O=C1NC(=O)/C(=C/c2ccc(-c3ccc(F)cc3O)o2)S1 | 445 | 419 | 427 | 447 | 420 | 427 | 430 | 443 | 422 |
| CCN(c1ccccc1)c1cc(NC)[n+](C)c(C)n1 | 464 | 466 | 475 | 469 | 457 | 470 | 456 | 471 | 468 |
| NC(=O)Nc1cc(-c2cccc(F)c2)sc1C(=O)N[C@H]1CCCNC1 | 188 | 196 | 169 | 345 | 325 | 330 | 314 | 335 | 324 |
| OCCn1cc(-c2cnc3nnn(Cc4ccc5ncccc5c4)c3n2)cn1 | 430 | 389 | 430 | 457 | 455 | 459 | 440 | 471 | 456 |
| OC[C@H]1O[C@@H](Oc2cc(O)cc(/C=C/c3ccc(O)cc3)c2)[C@H](O)[C@@H](O)[C@@H]1O | 451 | 433 | 429 | 449 | 465 | 473 | 397 | 426 | 416 |
| CNC(=O)C1=CC=C(C)C(=C1)N2C(=C/C(=C(/Br)C2=O)OCC3=C(F)C=C(F)C=C3)\C | 461 | 465 | 455 | 474 | 466 | 464 | 465 | 456 | 466 |
| Cc1noc(-c2ccc(CSCCC(=O)O)cc2)c1NC(=O)OC(C)c1ccccc1Cl (stereo unspecified) | 453 | 433 | 471 | 464 | 428 | 437 | 468 | 457 | 432 |
| Cc1ccc2c(c1)c1c(n2CCc2ccc(C)nc2)CCN(C)C1 | 472 | 471 | 474 | 459 | 465 | 469 | 447 | 458 | 472 |
| COc1cc(O)c2c(c1)C(=O)c1cc(C)cc(O)c1C2=O | 427 | 399 | 414 | 451 | 454 | 446 | 416 | 451 | 446 |
| CN1CCN(CCCN2c3ccccc3Sc3ccc(C(F)(F)F)cc32)CC1 | 447 | 451 | 463 | 426 | 423 | 456 | 379 | 357 | 384 |
| CCCC1OC2C[C@H]3[C@@H]4CCC5=CC(=O)C=C[C@]5(C)[C@H]4C(O)C[C@]3(C)[C@]2(C(=O)CO)O1 (stereo partly specified) | 317 | 304 | 311 | 324 | 290 | 252 | 446 | 460 | 458 |
| COc1cc(/C=C/C(=O)O)ccc1O | 411 | 412 | 460 | 452 | 434 | 441 | 463 | 452 | 438 |
| OCc1ccc(-c2ccc(-c3ccc(CO)s3)o2)s1 | 450 | 386 | 453 | 429 | 429 | 415 | 437 | 432 | 428 |
| CCOc1ccc(Cc2cc([C@@H]3O[C@H](CO)[C@@H](O)[C@H](O)[C@H]3O)ccc2Cl)cc1 | 465 | 450 | 468 | 459 | 466 | 469 | 470 | 464 | 476 |
